In ChEMBL document CHEMBL1132216, “Studies on the monoamine oxidase-B-catalyzed biotransformation of 4-azaaryl-1-methyl-1,2,3,6-tetrahydropyridine derivatives” (J Med Chem, 1999):

Experiment: Ratio of Kcat versus Km was determined

| Compound | Ratio |
| --- | --- |
| CN1CC=C(c2cccn2C)CC1 | 1800 |
| CN1CC=C(c2ccc[nH]2)CC1 | 46 |
